{
  "source": "patent US6843979B2",
  "about": "“4-haloethenylphenyl tropane:serotonin transporter imaging agents” (Emory University, priority 1999, dated 2005)",
  "key": {"[1]": {"target": "rat brain SERT (Rattus norvegicus, UniProt P31652)", "sequence (P31652 whole entry)": "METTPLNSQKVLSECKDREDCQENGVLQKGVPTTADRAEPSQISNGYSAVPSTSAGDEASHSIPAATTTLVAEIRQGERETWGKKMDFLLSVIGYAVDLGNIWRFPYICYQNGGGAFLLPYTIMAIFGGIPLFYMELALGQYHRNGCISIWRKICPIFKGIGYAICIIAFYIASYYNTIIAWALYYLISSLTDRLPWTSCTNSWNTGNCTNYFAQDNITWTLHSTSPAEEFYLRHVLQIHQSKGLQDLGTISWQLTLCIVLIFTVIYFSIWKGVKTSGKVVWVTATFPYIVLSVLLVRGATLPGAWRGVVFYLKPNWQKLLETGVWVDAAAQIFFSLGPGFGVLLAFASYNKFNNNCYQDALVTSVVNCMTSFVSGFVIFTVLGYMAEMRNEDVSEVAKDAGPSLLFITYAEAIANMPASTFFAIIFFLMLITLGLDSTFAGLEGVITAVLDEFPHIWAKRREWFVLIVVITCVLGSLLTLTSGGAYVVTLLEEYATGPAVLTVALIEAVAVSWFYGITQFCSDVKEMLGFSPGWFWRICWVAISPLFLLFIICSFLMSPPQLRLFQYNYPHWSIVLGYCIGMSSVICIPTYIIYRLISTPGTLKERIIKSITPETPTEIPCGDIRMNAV", "assay": "Regional brain uptake of [123I]ZIENT in rats with blocking agents"}, "[2]": {"test_system": "SERT", "assay": "SPECT imaging in baboon", "type": "in vivo", "settings": "anesthetized baboon, 300-360 min", "procedure": "FIG. 7 is a graph showing time activity curves of [^123I]ZIENT in a baboon.\nThe baboon was injected with 10 mCi of [^123I]ZIENT and serial images (128×128×64 matrix: pixel size=1.67×1.67 mm, slice, thickness=1.67 mm, voxel volume=4.66 mm^3) were acquired at 159 keV, in step and shoot mode at 10 min each for a total of 360 to 390 min and 32 to 35 acquisitions per experiment. Images were reconstructed using a ramp and a Butterworth filter (cutoff=0.65 cm-power factor=10). To identify brain regions, MRI scans of 1.5 mm contiguous slices were obtained with a 1.5 Tesla GE Signa device. Axial images were acquired using a spoiled GRASS (gradient recall acquisition in the steady state) sequence with TR=25 ms, TE=5 ms, NEX=2, matrix=256×192, field of view=16 cm. […] The uptake ratio of brainstem/cerebellum was 3.0:1 at 300-360 min."}, "[3]": {"assay": "Tissue uptake of [123I]ZIENT in rats", "settings": "rat"}, "[4]": {"target": "SERT sites (Macaca mulatta, UniProt Q9MYX0)", "sequence (Q9MYX0 whole entry)": "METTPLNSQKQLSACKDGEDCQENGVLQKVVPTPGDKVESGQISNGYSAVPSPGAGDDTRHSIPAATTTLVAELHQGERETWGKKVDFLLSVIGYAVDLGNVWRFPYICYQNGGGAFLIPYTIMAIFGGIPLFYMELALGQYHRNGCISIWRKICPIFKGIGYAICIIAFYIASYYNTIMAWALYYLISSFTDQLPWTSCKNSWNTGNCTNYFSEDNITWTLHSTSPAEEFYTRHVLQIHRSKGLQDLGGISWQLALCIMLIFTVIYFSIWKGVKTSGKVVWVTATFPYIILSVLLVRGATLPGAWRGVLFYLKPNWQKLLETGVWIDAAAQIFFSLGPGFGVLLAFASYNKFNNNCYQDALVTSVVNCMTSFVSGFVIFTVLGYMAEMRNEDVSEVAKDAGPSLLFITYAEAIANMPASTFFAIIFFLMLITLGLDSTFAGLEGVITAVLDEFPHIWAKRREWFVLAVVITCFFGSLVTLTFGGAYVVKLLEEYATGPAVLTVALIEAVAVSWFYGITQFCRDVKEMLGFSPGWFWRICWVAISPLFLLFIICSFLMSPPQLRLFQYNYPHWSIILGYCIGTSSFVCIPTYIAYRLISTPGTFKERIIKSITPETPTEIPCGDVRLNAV", "assay": "SPECT imaging and fluvoxamine chase study in rhesus monkey", "settings": "for Displacement of tracer by fluvoxamine (SPECT): fluvoxamine 5 mg i.v., midbrain / brainstem; for Brain uptake by SPECT: midbrain by 54 min, brainstem at 80-110 min", "text": "SPECT images were reconstructed as transaxial slices (3.2 mm) and attenuation corrected."}, "[5]": {"settings": "5 mg/kg i.v. 15 min prior, 60 min"}, "[6]": {"settings": "60 min, Fluvoxamine 5 mg/kg i.v. 15 min prior"}, "[7]": {"settings": "60 min, GBR 12909 5 mg/kg i.v. 15 min prior"}, "[8]": {"settings": "60 min after i.v., listed as [^123]ZIENT"}},
  "data": [
    {"molecule": "COC(=O)C1C2CCC(CC1c1ccc(C=C[123I])cc1)N2", "note": "(stereo not shown) [[^123I]ZIENT]", "values": [
      {"measurement": "Effect of GBR 12909 (DAT ligand) on tracer uptake in striatum", "setting": "[1]; [5]", "value": "did not significantly block"},
      {"measurement": "Effect of NET blocking agent (reboxetine) on regional brain uptake of tracer", "setting": "[1]; [5]", "value": "little effect"},
      {"measurement": "Effect of fluvoxamine (SERT ligand) on tracer uptake in hypothalamus and striatum", "setting": "[1]; [5]", "value": "significantly blocked"},
      {"measurement": "Hypothal/(CB) ratio", "setting": "[1]; [6]", "value": 1.3},
      {"measurement": "Regional uptake, Brain", "setting": "[1]; [6]", "value": "0.27 (0.24 0-0.30) % dose/g"},
      {"measurement": "Regional uptake, Cerebellum", "setting": "[1]; [6]", "value": "0.18 (0.16-0.20) % dose/g"},
      {"measurement": "Regional uptake, Frontal Cortex", "setting": "[1]; [6]", "value": "0.26 (0.23-0.29) % dose/g"},
      {"measurement": "Regional uptake, Hypothalamus", "setting": "[1]; [6]", "value": "0.23 (0.18-0.27) % dose/g"},
      {"measurement": "Regional uptake, Striatum", "setting": "[1]; [6]", "value": "0.28 (0.24-0.32) % dose/g"},
      {"measurement": "Striatum/(CB) ratio", "setting": "[1]; [6]", "value": 1.6},
      {"measurement": "Hypothal/(CB) ratio", "setting": "[1]; [7]", "value": 1.8},
      {"measurement": "Regional uptake, Brain", "setting": "[1]; [7]", "value": "0.39 (0.37-0.42) % dose/g"},
      {"measurement": "Regional uptake, Cerebellum", "setting": "[1]; [7]", "value": "0.21 (0.18-0.26) % dose/g"},
      {"measurement": "Regional uptake, Frontal Cortex", "setting": "[1]; [7]", "value": "0.43 (0.38-0.47) % dose/g"},
      {"measurement": "Regional uptake, Hypothalamus", "setting": "[1]; [7]", "value": "0.38 (0.34-0.41) % dose/g"},
      {"measurement": "Regional uptake, Striatum", "setting": "[1]; [7]", "value": "0.40 (0.37-0.42) % dose/g"},
      {"measurement": "Striatum/(CB) ratio", "setting": "[1]; [7]", "value": 1.9},
      {"measurement": "Hypothal/(CB) ratio", "setting": "[1]; 60 min after i.v.", "value": 2.7},
      {"measurement": "Regional uptake, Brain", "setting": "[1]; 60 min after i.v.", "value": "0.61 (0.56-0.63) % dose/g"},
      {"measurement": "Regional uptake, Cerebellum", "setting": "[1]; 60 min after i.v.", "value": "0.29 (0.28-0.31) % dose/g"},
      {"measurement": "Regional uptake, Frontal Cortex", "setting": "[1]; 60 min after i.v.", "value": "0.70 (0.65-0.78) % dose/g"},
      {"measurement": "Regional uptake, Hypothalamus", "setting": "[1]; 60 min after i.v.", "value": 0.7, "unit": "% dose/g"},
      {"measurement": "Regional uptake, Striatum", "setting": "[1]; 60 min after i.v.", "value": "0.60 (0.54-0.63) % dose/g"},
      {"measurement": "Striatum/(CB) ratio", "setting": "[1]; 60 min after i.v.", "value": 2.1},
      {"measurement": "Hypothal/(CB) ratio", "setting": "[1]; 60 min after i.v., listed as [^123I] ZIENT", "value": 3},
      {"measurement": "Hypothal/(CB) ratio", "setting": "[1]; [8]", "value": 2.7},
      {"measurement": "Regional uptake, Hypothalamus", "setting": "[1]; [8]", "value": "0.77 (0.69-0.83) % dose/g"},
      {"measurement": "Hypothal/(CB) ratio", "setting": "[1]; 120 min after i.v.", "value": 4.4},
      {"measurement": "Regional uptake, Brain", "setting": "[1]; 120 min after i.v.", "value": "0.40 (0.32-0.50) % dose/g"},
      {"measurement": "Regional uptake, Cerebellum", "setting": "[1]; 120 min after i.v.", "value": "0.12 (0.11-0.28) % dose/g"},
      {"measurement": "Regional uptake, Frontal Cortex", "setting": "[1]; 120 min after i.v.", "value": "0.48 (0.42-0.53) % dose/g"},
      {"measurement": "Regional uptake, Hypothalamus", "setting": "[1]; 120 min after i.v.", "value": "0.53 (0.44-0.60) % dose/g"},
      {"measurement": "Regional uptake, Striatum", "setting": "[1]; 120 min after i.v.", "value": "0.46 (0.37-0.55) % dose/g"},
      {"measurement": "Striatum/(CB) ratio", "setting": "[1]; 120 min after i.v.", "value": 3.8},
      {"measurement": "Hypothal/(CB) ratio", "setting": "[1]; 120 min after i.v., listed as [^123I] ZIENT", "value": 5},
      {"measurement": "Hypothal/(CB) ratio", "setting": "[1]; 120 min after i.v., listed as [^123]ZIENT", "value": 4.4},
      {"measurement": "Prefrontal cortex to cerebellum ratio", "setting": "[1]; 120 min post injection", "value": 2.9},
      {"measurement": "Clearance from the hypothalamus", "setting": "[1]; at 120 min compared to 60 min post injection", "value": 30, "unit": "%"},
      {"measurement": "Uptake ratio of brainstem/cerebellum", "setting": "[2]", "value": 3.0},
      {"measurement": "Tissue uptake, Blood", "setting": "[3]; 5 min after i.v.", "value": "0.64 (0.52-0.86) percent dose per gram"},
      {"measurement": "Tissue uptake, Heart", "setting": "[3]; 5 min after i.v.", "value": "2.41 (2.36-2.47) percent dose per gram"},
      {"measurement": "Tissue uptake, Kidney", "setting": "[3]; 5 min after i.v.", "value": "2.35 (2.16-2.67) percent dose per gram"},
      {"measurement": "Tissue uptake, Liver", "setting": "[3]; 5 min after i.v.", "value": "0.99 (0.73-1.33) percent dose per gram"},
      {"measurement": "Tissue uptake, Lung", "setting": "[3]; 5 min after i.v.", "value": "9.71 (7.9-11.8) percent dose per gram"},
      {"measurement": "Tissue uptake, Muscle", "setting": "[3]; 5 min after i.v.", "value": "0.30 (0.15-0.44) percent dose per gram"},
      {"measurement": "Tissue uptake, Spleen", "setting": "[3]; 5 min after i.v.", "value": "3.79 (3.28-4.67) percent dose per gram"},
      {"measurement": "Tissue uptake, Testis", "setting": "[3]; 5 min after i.v.", "value": "0.22 (0.19-0.27) percent dose per gram"},
      {"measurement": "Tissue uptake, Thyroid", "setting": "[3]; 5 min after i.v.", "value": "0.11 (0.08-0.12) percent dose per gram"},
      {"measurement": "Tissue uptake, Blood", "setting": "[3]; 30 min after i.v.", "value": "0.46 (0.43-0.49) percent dose per gram"},
      {"measurement": "Tissue uptake, Heart", "setting": "[3]; 30 min after i.v.", "value": "0.52 (0.48-0.55) percent dose per gram"},
      {"measurement": "Tissue uptake, Kidney", "setting": "[3]; 30 min after i.v.", "value": "0.66 (0.64-0.70) percent dose per gram"},
      {"measurement": "Tissue uptake, Liver", "setting": "[3]; 30 min after i.v.", "value": "0.43 (0.38-0.51) percent dose per gram"},
      {"measurement": "Tissue uptake, Lung", "setting": "[3]; 30 min after i.v.", "value": "1.48 (1.35-1.66) percent dose per gram"},
      {"measurement": "Tissue uptake, Muscle", "setting": "[3]; 30 min after i.v.", "value": "0.29 (0.25-0.32) percent dose per gram"},
      {"measurement": "Tissue uptake, Spleen", "setting": "[3]; 30 min after i.v.", "value": "1.24 (1.03-1.50) percent dose per gram"},
      {"measurement": "Tissue uptake, Testis", "setting": "[3]; 30 min after i.v.", "value": "0.36 (0.30-0.47) percent dose per gram"},
      {"measurement": "Tissue uptake, Thyroid", "setting": "[3]; 30 min after i.v.", "value": "0.23 (0.19-0.29) percent dose per gram"},
      {"measurement": "Tissue uptake, Blood", "setting": "[3]; 60 min after i.v.", "value": "0.39 (0.23-0.42) percent dose per gram"},
      {"measurement": "Tissue uptake, Heart", "setting": "[3]; 60 min after i.v.", "value": "0.36 (0.15-0.40) percent dose per gram"},
      {"measurement": "Tissue uptake, Kidney", "setting": "[3]; 60 min after i.v.", "value": "0.44 (0.29-0.50) percent dose per gram"},
      {"measurement": "Tissue uptake, Liver", "setting": "[3]; 60 min after i.v.", "value": "0.28 (0.11-0.30) percent dose per gram"},
      {"measurement": "Tissue uptake, Lung", "setting": "[3]; 60 min after i.v.", "value": "1.27 (0.62-1.44) percent dose per gram"},
      {"measurement": "Tissue uptake, Muscle", "setting": "[3]; 60 min after i.v.", "value": "0.20 (0.11-0.22) percent dose per gram"},
      {"measurement": "Tissue uptake, Spleen", "setting": "[3]; 60 min after i.v.", "value": "0.82 (0.50-0.94) percent dose per gram"},
      {"measurement": "Tissue uptake, Testis", "setting": "[3]; 60 min after i.v.", "value": "0.29 (0.26-0.34) percent dose per gram"},
      {"measurement": "Tissue uptake, Thyroid", "setting": "[3]; 60 min after i.v.", "value": "0.33 (0.17-0.37) percent dose per gram"},
      {"measurement": "Tissue uptake, Blood", "setting": "[3]; 120 min after i.v.", "value": "0.33 (0.31-0.36) percent dose per gram"},
      {"measurement": "Tissue uptake, Heart", "setting": "[3]; 120 min after i.v.", "value": "0.20 (0.18-0.24) percent dose per gram"},
      {"measurement": "Tissue uptake, Kidney", "setting": "[3]; 120 min after i.v.", "value": "0.32 (0.29-0.35) percent dose per gram"},
      {"measurement": "Tissue uptake, Liver", "setting": "[3]; 120 min after i.v.", "value": "0.29 (0.23-0.41) percent dose per gram"},
      {"measurement": "Tissue uptake, Lung", "setting": "[3]; 120 min after i.v.", "value": "0.72 (0.61-0.78) percent dose per gram"},
      {"measurement": "Tissue uptake, Muscle", "setting": "[3]; 120 min after i.v.", "value": "0.16 (0.14-0.18) percent dose per gram"},
      {"measurement": "Tissue uptake, Spleen", "setting": "[3]; 120 min after i.v.", "value": "0.51 (0.44-0.55) percent dose per gram"},
      {"measurement": "Tissue uptake, Testis", "setting": "[3]; 120 min after i.v.", "value": "0.30 (0.26-0.33) percent dose per gram"},
      {"measurement": "Tissue uptake, Thyroid", "setting": "[3]; 120 min after i.v.", "value": "1.61 (0.82-2.31) percent dose per gram"},
      {"measurement": "Displacement of tracer by fluvoxamine (SPECT)", "setting": "[4]", "value": "significant reduction of activity"},
      {"measurement": "Displacement of tracer by fluvoxamine (SPECT)", "setting": "[4]; listed as [^123I] ZIENT", "value": "significantly displaced"},
      {"measurement": "Brain uptake by SPECT", "setting": "[4]", "value": "regions of highest uptake"},
      {"measurement": "Brain uptake by SPECT", "setting": "[4]; listed as [^123I] ZIENT", "value": "high"}
    ]}
  ]
}
